According to patent US20030153808A1, “Implantation rate using ff-mas” (priority 2000, published 2003):

What was measured:
adult, cycling rat = assay: Embryo implantation in the cycling rat after subcutaneous treatment; assay type: in vivo; settings: 20 mg/kg s.c. once daily d1-d8, mating d7, uteri checked d16, female Wistar rats, 5 animals/group; vehicle 10 ± 4
Procedure: A total of 15 sexually mature female Wistar rats with a body weight of 200-220 g and a 4-day cycle were used. The animals were divided in one control group (group 1) and two treatment groups (group 2-3) consisting of 5 animals/group, respectively.
Starting in metestrus (d1) animals were treated for eight days (d1-d8), once daily, subcutaneously with the test compounds (treatment groups) or vehicle (control group), respectively. At day 7, at proestrus, animals were mated. The success of mating was checked by the presence of sperms in the vagina at d8. At d16 animals were sacrificed. Uteri were removed and checked for the presence of implantation sides. In each animal the number of implantation sides were determined.
Control group 1 received vehicle alone [(ethanol/arachisoil, 1+9 (v/v)].
Group 2 received 20 mg/kg FF-MAS, prepared in an ethanol/arachisoil vehicle.
Group 2 received 20 mg/kg FF-MAS-succinate, prepared in an ethanol/arachisoil vehicle.

mouse oocytes [1] = assay: Implantation rate after IVF: mouse oocyte cultivation with FF-MAS, in vitro-fertilization, tubal retransfer to foster mothers; assay type: cell-based
Procedure: Oocytes are obtained by puncture using a fine needle from the ovaries of mice primed with PMSG (pregnant mare serum gonadotrophin). The oocytes are cultivated for approx. 20 hours in a defined hypoxanthine-containing culture medium (Hx medium, see above) with FF-MAS (10 μM) (37° C.). The control oocytes are cultivated in defined culture medium without FF-MAS for the same period of time. Both the FF-MAS-oocytes and the control oocytes have begun meiosis maturation at the end of the culture period. All oocytes punctured on one day (from various mice) are pooled and distributed over the two study groups.
The oocytes cultivated in the mouse oocyte assay are further processed in this experiment. They are washed briefly 3× in a defined medium not containing FF-MAS and subsequently transferred into an IVF medium not containing FF-MAS. Then a defined number of capacitated sperms (obtained from the epididymides of a male mouse) is added and the oocytes are incubated with the sperms for approx. 4 hours in an incubator at 37° C. Following incubation the number of inseminated oocytes is counted.
1 day before the retransfer female recipient mice (foster mothers) in pre-estrus are mated with vasectomized males in order to trigger pseudogestation. One day later a vaginal check is performed. Animals with positive, sperm-free vaginal prop (successful mating) enter the study. This day is day 0 of gestation (=day 0 after the sterile copulation). Approx 10-15 inseminated oocytes are transferred into one tube (right) to the foster mothers on day 0 after the sterile copulation under anesthetization. The contralateral tube remains unused (check for pseudogestation). Only inseminated oocytes from the IVF experiment are used.
Retransfer is repeated until approx. 20 evaluable litters (with viable fetuses) have been obtained in all study groups (10 μM FF-MAS and one untreated control group).
The foster mothers are killed on day 17 of gestation. Uteri are removed. The number of viable and dead fetuses, the number of foster mothers, the number of pregnant foster mothers and the number of pregnant foster mothers with viable fetuses and with total fetal death, respectively, are counted.

human oocytes = settings: Grøndahl et al. 1999; cited from earlier work
mouse oocytes [2] = settings: added to the culture medium; Hegele-Hartung et al. 1998; cited from earlier work

SMILES | Number of implantation sides [x ± sd] d16 (adult, cycling rat) | Number of pregnant foster mothers [n] (mouse oocytes [1]; 10 μM FF-MAS in culture medium, 69 foster mothers, control 43 of 153) | Number of pregnant foster mothers [%] (mouse oocytes [1]; 10 μM FF-MAS in culture medium, % of foster mothers, control 28) | Number of pregnant foster mothers with viable fetuses [%] (mouse oocytes [1]; 10 μM FF-MAS in culture medium, % of pregnant foster mothers, control 47) | Numbers of pregnant foster mothers with total fetal death [%] (mouse oocytes [1]; 10 μM FF-MAS in culture medium, % of pregnant foster mothers, control 54) | Number of pregnant foster mothers with viable fetuses [n] (mouse oocytes [1]; 10 μM FF-MAS in culture medium, control 20) | Numbers of pregnant foster mothers with total fetal death [n] (mouse oocytes [1]; 10 μM FF-MAS in culture medium, control 23) | Number of viable fetuses [n] (mouse oocytes [1]; 10 μM FF-MAS in oocyte culture medium approx. 20 h, IVF, retransfer, foster mothers killed day 17 of gestation, 69 foster mothers, control 45 of 153) | nuclear and cytoplasmic maturation (human oocytes) | fertilization rate (mouse oocytes [2])
CC(C)=CCCC(C)C1CC=C2C3=C(CCC21C)C1(C)CCC(OC(=O)CCC(=O)O)C(C)(C)C1CC3 (centres unmarked) [FF-MAS-succinate] | 12 ± 2 |  |  |  |  |  |  |  |  | 
CC(C)=CCC[C@@H](C)[C@H]1CC=C2C3=C(CC[C@@]21C)[C@@]1(C)CC[C@H](O)C(C)(C)[C@@H]1CC3 [FF-MAS, 4,4-dimethyl-5a-cholesta-8,14,24-triene-3β-ol] | 15 ± 3 | 27 n | 40% | 78% | 22% | 21 n | 6 n | 42 n | improvement in nuclear and cytoplasmic maturation | increase the fertilization rate
